This note sets out measurements from ChEMBL document CHEMBL1944604, “Aminopurine based JNK inhibitors for the prevention of ischemia reperfusion injury” (Bioorg Med Chem Lett, 2012).

Broadly, the half-life is the time needed for the level to fall by half in the phase considered. A word on the IC50: it is the concentration that inhibits the measured activity by half. One may read the clearance as a measure of how efficiently the substance is removed, as volume per time. One may read the AUC as the area under the concentration-time curve, a measure of exposure.

The subject of one data set is Rattus norvegicus. Description: Antiischemic activity in Lewis rat ischemia reperfusion model assessed as increase in survival rate at 10 mg/kg, iv bolus administered 15 mins before ischemia challenge relative to control. The data set is classed as functional.
The nature of data set [1]: Half life in dog at 1 mg/kg, iv bolus. The class given is ADME, organism-based, Canis lupus familiaris. Conditions: in vivo. More on the design: dose 1 mg/kg, route intravenous.
The target of data set [2] is c-Jun N-terminal kinase, JNK (Homo sapiens, UniProt P45983+P53779+P45984). Description: Inhibition of JNK-mediated cJun phosphorylation in anisomysin-stimulated human Jurkat T cells pretreated for 30 mins before anisomysin stimulation measured after 10 mins by DELFIA assay. The data set is classed as cell-based.
The nature of data set [3]: Clearance in cynomolgus monkey at 1 mg/kg, iv bolus. The class given is ADME, organism-based, Macaca fascicularis. More on the design: dose 1 mg/kg, route intravenous. Conditions: in vivo.
In a further data set the target is T1, CYP2B6 (Homo sapiens, UniProt P20813).
T1 sequence (P20813 whole entry): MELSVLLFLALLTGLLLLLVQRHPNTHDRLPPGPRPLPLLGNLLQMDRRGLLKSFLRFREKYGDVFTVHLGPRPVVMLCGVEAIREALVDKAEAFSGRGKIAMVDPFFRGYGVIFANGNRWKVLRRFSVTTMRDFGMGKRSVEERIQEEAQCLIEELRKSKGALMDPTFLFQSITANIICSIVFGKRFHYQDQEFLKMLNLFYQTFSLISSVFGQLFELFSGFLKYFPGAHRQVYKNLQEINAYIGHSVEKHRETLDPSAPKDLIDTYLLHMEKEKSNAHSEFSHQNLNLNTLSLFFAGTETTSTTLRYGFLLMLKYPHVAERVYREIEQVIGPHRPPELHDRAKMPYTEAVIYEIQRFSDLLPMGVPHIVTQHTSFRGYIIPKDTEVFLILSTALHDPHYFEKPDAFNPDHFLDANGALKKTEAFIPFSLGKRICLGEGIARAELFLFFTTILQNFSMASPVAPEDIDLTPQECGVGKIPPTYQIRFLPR
Description: Drug metabolism assessed as CYP2B6-mediated compound loss after 30 mins. The data set is classed as ADME. Conditions: recombinant enzyme; read-out: Drug metabolism.

Data set [4] can be described thus: Clearance in rat at 2 to 10 mg/kg, iv. The following applies: in vivo. The class given is ADME, organism-based. Also noted: dose 2-10 mg/kg, route intravenous.
Data set [5] is described as follows: AUC in rat at 2 to 10 mg/kg, iv bolus. More on the design: dose 2-10 mg/kg, route intravenous. The class given is ADME, organism-based. The following applies: plasma.
The next data set addresses Cytochrome P450 2D6 (Homo sapiens, UniProt P10635). Description: Inhibition of recombinant CYP2D6 up to 30 uM. The class given is ADME. Conditions: recombinant enzyme.

Cytochrome P450 2D6, sequence (P10635 whole entry): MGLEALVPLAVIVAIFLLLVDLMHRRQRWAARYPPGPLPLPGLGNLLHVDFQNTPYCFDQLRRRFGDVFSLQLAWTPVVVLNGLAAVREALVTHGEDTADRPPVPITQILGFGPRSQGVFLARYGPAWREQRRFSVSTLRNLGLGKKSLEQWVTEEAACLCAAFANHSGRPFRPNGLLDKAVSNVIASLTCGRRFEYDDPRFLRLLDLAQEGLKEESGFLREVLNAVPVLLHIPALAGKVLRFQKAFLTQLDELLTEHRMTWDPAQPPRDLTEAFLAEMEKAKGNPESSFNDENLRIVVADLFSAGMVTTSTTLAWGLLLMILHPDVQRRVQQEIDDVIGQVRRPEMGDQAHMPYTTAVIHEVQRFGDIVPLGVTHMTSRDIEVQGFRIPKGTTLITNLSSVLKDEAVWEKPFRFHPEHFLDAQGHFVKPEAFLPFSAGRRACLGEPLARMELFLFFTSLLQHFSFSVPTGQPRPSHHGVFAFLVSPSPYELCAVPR

For `N[C@H]1CC[C@H](Nc2ncc3nc(Nc4ccc(F)cc4F)n(C4CCCC4)c3n2)CC1`, the survival at 10 mg/kg with Rattus norvegicus turned out to be 80%. In addition, the half-life in data set [1] was 17 h. In addition, in data set [2], the IC50 came to 350 nM. Moreover, the clearance in data set [3] came to 5 mL/min/kg; in data set [4], 66 mL/min/kg. Further, the metabolised at 0.5 h on CYP2B6 is 14%. In addition, in data set [5], the area under the curve (AUC) amounted to 4.7 µM·h. For the same compound, the “inhibition (INH)” value on Cytochrome P450 2D6 is listed as “Not Active”.
